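Test compounds were applied to cells in 96-well plates for 48 hours at 5 doses. Abbreviation: GI50, concentration required for 50% inhibition of growth. TGI: total growth inhibition.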
Key:
Experiment in all cases: DTP human tumour cell line panel, 48 h
[1] = system: 786-0 renal
[2] = system: A498 renal
[3] = system: A549 NSCLC
[4] = system: ACHN renal
[5] = system: BT-549 breast
[6] = system: CAKI-1 renal
[7] = system: CCRF-CEM leukemia
[8] = system: COLO 205 colon
[9] = system: DU-145 prostate
[10] = system: HCC-2998 colon
[11] = system: HCT-116 colon
[12] = system: HCT-15 colon
[13] = system: HL-60(TB) leukemia
[14] = system: HOP-62 NSCLC
[15] = system: HS 578T breast
[16] = system: HT29 colon
[17] = system: IGROV1 ovarian
[18] = system: K-562 leukemia
[19] = system: KM12 colon
[20] = system: LOX IMVI melanoma
[21] = system: M14 melanoma
[22] = system: MALME-3M melanoma
[23] = system: MCF7 breast
[24] = system: MDA-MB-231 breast
[25] = system: MDA-MB-435
[26] = system: MOLT-4 leukemia
[27] = system: NCI-H226 lung
[28] = system: NCI-H23 lung
[29] = system: NCI-H460 lung
[30] = system: NCI-H522 lung
[31] = system: NCI/ADR-RES ovarian
[32] = system: OVCAR-3 ovarian
[33] = system: OVCAR-4 ovarian
[34] = system: OVCAR-5 ovarian
[35] = system: OVCAR-8 ovarian
[36] = system: PC-3 prostate
[37] = system: RPMI-8226 leukemia
[38] = system: RXF 393 renal
[39] = system: SF-268 CNS
[40] = system: SF-295 CNS
[41] = system: SF-539 CNS
[42] = system: SK-MEL-2 melanoma
[43] = system: SK-MEL-28 melanoma
[44] = system: SK-MEL-5 melanoma
[45] = system: SK-OV-3 ovarian
[46] = system: SN12C renal
[47] = system: SNB-19 CNS
[48] = system: SNB-75 CNS
[49] = system: SW-620 colon
[50] = system: T-47D breast
[51] = system: TK-10 renal
[52] = system: U251 CNS
[53] = system: UACC-257 melanoma
[54] = system: UACC-62 melanoma
[55] = system: UO-31 renal

Compound `Cn1cc(C2=C(n3ccc4ccccc43)C(=O)NC2=O)c2ccccc21` has a GI50 [1] greater than 25 µM, a TGI [1] greater than 25 µM and a GI50 [2] greater than 25 µM. It also gave a TGI [2] greater than 25 µM, a GI50 [3] greater than 25 µM and a TGI [3] greater than 25 µM. For the same compound, the GI50 [4] was greater than 25 µM, the TGI [4] was greater than 25 µM and the GI50 [5] was greater than 25 µM. It also gave a TGI [5] greater than 25 µM, a GI50 [6] greater than 25 µM and a TGI [6] greater than 25 µM. It also gave a GI50 [7] greater than 25 µM, a TGI [7] greater than 25 µM and a GI50 [8] greater than 25 µM. It also gave a TGI [8] greater than 25 µM, a GI50 [9] greater than 25 µM and a TGI [9] greater than 25 µM. It also gave a GI50 [10] greater than 25 µM, a TGI [10] greater than 25 µM and a GI50 [11] greater than 25 µM. It also gave a TGI [11] greater than 25 µM, a GI50 [12] greater than 25 µM and a TGI [12] greater than 25 µM. For the same compound, the GI50 [13] was greater than 25 µM, the TGI [13] was greater than 25 µM and the GI50 [14] was greater than 25 µM. For the same compound, the TGI [14] was greater than 25 µM, the GI50 [15] was greater than 25 µM and the TGI [15] was greater than 25 µM. For the same compound, the GI50 [16] was greater than 25 µM, the TGI [16] was greater than 25 µM and the GI50 [17] was greater than 25 µM. The TGI [17] was greater than 25 µM, the GI50 [18] was greater than 25 µM and the TGI [18] was greater than 25 µM. It also gave a GI50 [19] greater than 25 µM, a TGI [19] greater than 25 µM and a GI50 [20] greater than 25 µM. The TGI [20] was greater than 25 µM, the GI50 [21] was greater than 25 µM and the TGI [21] was greater than 25 µM. The GI50 [22] was greater than 25 µM, the TGI [22] was greater than 25 µM and the GI50 [23] was greater than 25 µM. It also gave a TGI [23] greater than 25 µM, a GI50 [24] greater than 25 µM and a TGI [24] greater than 25 µM. It also gave a GI50 [25] greater than 25 µM, a TGI [25] greater than 25 µM and a GI50 [26] greater than 25 µM. It also gave a TGI [26] greater than 25 µM, a GI50 [27] greater than 25 µM and a TGI [27] greater than 25 µM. For the same compound, the GI50 [28] was greater than 25 µM, the TGI [28] was greater than 25 µM and the GI50 [29] was greater than 25 µM. The TGI [29] was greater than 25 µM, the GI50 [30] was greater than 25 µM and the TGI [30] was greater than 25 µM. The GI50 [31] was greater than 25 µM, the TGI [31] was greater than 25 µM and the GI50 [32] was greater than 25 µM. The TGI [32] was greater than 25 µM, the GI50 [33] was greater than 25 µM and the TGI [33] was greater than 25 µM. The GI50 [34] was greater than 25 µM, the TGI [34] was greater than 25 µM and the GI50 [35] was greater than 25 µM. For the same compound, the TGI [35] was greater than 25 µM, the GI50 [36] was greater than 25 µM and the TGI [36] was greater than 25 µM. The GI50 [37] was greater than 25 µM, the TGI [37] was greater than 25 µM and the GI50 [38] was greater than 25 µM. It also gave a TGI [38] greater than 25 µM, a GI50 [39] greater than 25 µM and a TGI [39] greater than 25 µM. The GI50 [40] was greater than 25 µM, the TGI [40] was greater than 25 µM and the GI50 [41] was greater than 25 µM. It also gave a TGI [41] greater than 25 µM, a GI50 [42] greater than 25 µM and a TGI [42] greater than 25 µM. For the same compound, the GI50 [43] was greater than 25 µM, the TGI [43] was greater than 25 µM and the GI50 [44] was greater than 25 µM. For the same compound, the TGI [44] was greater than 25 µM, the GI50 [45] was greater than 25 µM and the TGI [45] was greater than 25 µM. The GI50 [46] was greater than 25 µM, the TGI [46] was greater than 25 µM and the GI50 [47] was greater than 25 µM. The TGI [47] was greater than 25 µM, the GI50 [48] was greater than 9.34 µM and the TGI [48] was greater than 25 µM. For the same compound, the GI50 [49] was greater than 25 µM, the TGI [49] was greater than 25 µM and the GI50 [50] was greater than 25 µM. It also gave a TGI [50] greater than 25 µM, a GI50 [51] greater than 25 µM and a TGI [51] greater than 25 µM. It also gave a GI50 [52] greater than 25 µM, a TGI [52] greater than 25 µM and a GI50 [53] greater than 25 µM. The TGI [53] was greater than 25 µM, the GI50 [54] was greater than 25 µM and the TGI [54] was greater than 25 µM. It also gave a GI50 [55] greater than 21.6 µM and a TGI [55] greater than 25 µM.

— PubChem BioAssay (NCI)
